For test [1], the system named is Danio rerio. Description: In Vivo Angiogenesis Dose-Response Confirmation. [Related pubchem assays: 732 (Assay preceding this confirmatory assay.)]. The test is classed as functional, organism-based.
In test [2] the test system is Vero. Description: mammalian cell viability reduction – secondary assay, cytotoxicity control for West Nile virus antiviral project, dose response (AID 1650). The test is classed as functional. The conditions noted are these: Chlorocebus sabaeus.
The target of test [3] is T1, Heat shock factor protein 1 (Mus musculus, UniProt P38532).
T1 sequence (P38532 whole entry): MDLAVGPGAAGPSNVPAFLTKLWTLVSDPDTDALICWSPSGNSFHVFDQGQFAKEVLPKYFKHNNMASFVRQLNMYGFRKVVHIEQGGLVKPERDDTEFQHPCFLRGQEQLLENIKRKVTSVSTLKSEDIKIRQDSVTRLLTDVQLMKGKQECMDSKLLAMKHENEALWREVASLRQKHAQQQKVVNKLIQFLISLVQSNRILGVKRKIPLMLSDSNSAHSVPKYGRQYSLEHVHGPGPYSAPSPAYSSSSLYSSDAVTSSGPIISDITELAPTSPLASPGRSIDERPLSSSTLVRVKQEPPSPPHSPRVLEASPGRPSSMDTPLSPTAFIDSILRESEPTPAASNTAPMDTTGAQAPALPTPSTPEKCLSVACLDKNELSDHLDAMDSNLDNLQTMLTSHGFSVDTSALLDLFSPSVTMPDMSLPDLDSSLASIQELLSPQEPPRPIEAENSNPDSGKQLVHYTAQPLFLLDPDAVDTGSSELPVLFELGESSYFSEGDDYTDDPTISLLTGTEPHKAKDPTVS
Description: enhancement of HSF1-driven luciferase signal – cell-based, NIH3T3, luminescence, dose retest, confirmation (AID 435004).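 Further: stress induced by proteasome inhibitor MG132 added 30 min after compound; luciferase reporter driven by HSF1 response element in NIH3T3 cells; actives raise luminescence as potentiators of the MG132 stress response.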 The test is classed as functional.

Test [4] concerns INS1. Description: INS-1E survival protection against cytokine death – cell-based, luminescence, retest, dose response (AID 449756).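 Further: cell death triggered by IL-1 beta plus TNF-alpha plus IFN-gamma mixture; protective hits raise ATP signal compared with cytokine alone wells.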 Conditions: Rattus norvegicus. The format is functional.
Test [5] can be described thus: reduction of Shn3 3'UTR-driven luciferase in osteoblasts – cell-based, Clone20 osteoblasts, firefly luciferase, cherry-picked, dose response (AID 624132).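 Further: firefly luciferase luminescence from reporter carrying the Shn3 3'UTR in osteoblasts.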 The test is classed as functional.
A short description of test [6]: loss of viability in HepG2 cells – cell-based, CellTiter-Glo, cherry-picked, cytotoxicity control for Shn3 inhibitor project, dose response (AID 624134). The format is functional.
Test [7] can be described thus: non-specific 3'UTR reporter inhibition in Clone20-Shn3RL – cell-based, Renilla luciferase, cherry-picked, counter-screen for Shn3 inhibitor project, dose response (AID 624133). The format is functional. (In general: A counterscreen serves to expose hits that act by an unwanted route or on another target.)
Test [8] has as its target T2, Interleukin-8 (Homo sapiens, UniProt P10145).
T2 sequence (P10145 whole entry): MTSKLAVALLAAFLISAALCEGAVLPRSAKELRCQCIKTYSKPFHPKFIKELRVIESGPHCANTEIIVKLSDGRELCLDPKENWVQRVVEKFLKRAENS
Description: Dose Response confirmation of uHTS small molecule hits for cystic fibrosis induced NFkb Inhibitors in a TNFa-induced IL8 counterscreen. The format is functional. The conditions noted are these: read-out: IC50_Mean.

Test [9] concerns the target T2, Interleukin-8. Description: Dose Response confirmation of uHTS small molecule hits for cystic fibrosis induced NFkb Inhibitors in a PAF-induced IL8 counterscreen. The format is functional. Conditions: read-out: IC50_Mean.
Test [10] concerns Vero. Description: inhibition of WNV-induced cytopathic effect – cell-based, CPE readout (AID 1621). Conditions: Chlorocebus sabaeus. The test is classed as functional. Background: Cytopathic effects are the visible damage that an infection or toxin causes in cultured cells.
Test [11] in a line: NIH-3T3 fibroblast cytotoxicity, dose response, cytotoxicity control, cell-based, fluorescence, Alamar Blue, secondary assay (AID 2327).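 Further: NIH-3T3 mouse fibroblasts cultured with fluconazole at 8 µg/mL.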 The test is classed as functional. On the technique in general: Alamar Blue is a resazurin reagent that responds to reducing activity.
Test [12] is described as follows: Luminescence Cell-Based Dose Response to Identify Activators of 5'UTR Stem-Loop Driven Prion Protein mRNA Translation in H4-C Neuroglioblastoma Cells. [Related pubchem assays: 1829 (Project Summary), 1814 (Primary HTS)]. The test is classed as functional.
Test [13] in a line: Luminescence Cell-Based Dose Response HTS to Identify Activators of Luciferase Translation or Activity in H4 […] Cells. [Related pubchem assays: 1829 (Project Summary), 1814 (Primary HTS)]. The format is functional.
Test [14] has as its system H4. Description: Luminescence Cell-Based Dose Response HTS to Identify Activators of 5'UTR Stem-Loop Driven Prion Protein mRNA Translation in H4 Neuroglioblastoma Cells. [Related pubchem assays: 1829 (Project Summary), 1814 (Primary HTS)]. The test is classed as functional. Conditions: Homo sapiens.
The nature of test [15]: fluconazole-exposed Candida albicans growth modulators – fluorescence, retest, confirmation (AID 2467). The test is classed as functional, cell-based.
Test [16] in a line: Luminescence Cell-Based Dose Response to Identify Activators of Luciferase Translation or Activity in H4-C Neuroglioblastoma Cells. [Related pubchem assays: 1829 (Project Summary), 1814 (Primary HTS)]. The test is classed as functional.
A short description of test [17]: Luminescence Cell-Based Dose Confirmation to Identify Activators of 5'UTR Stem-Loop Driven Alpha-Synuclein mRNA Translation in H4 Neuroglioblastoma Cells. [Related pubchem assays: 1829 (Project Summary), 1814 (Primary HTS)]. The test is classed as functional.
Test [18] has as its system Vero. Description: viability of Vero cells under compound – cytotoxicity control for flavivirus capping enzyme inhibitors (AID 588742). The conditions noted are these: Chlorocebus sabaeus. The test is classed as functional.

By CC50 is commonly meant the concentration giving 50% cytotoxicity. One may read the EC50 as the midpoint of the concentration-response curve. What is called AC50 is the midpoint of the concentration-response curve, whichever way the signal moves.

Activity calls are given as the source filed them. Where only a bound is given, the exact number is not on record here.

With `O=C1Nc2ccccc2/C1=C1/Nc2ccccc2C1=O` [INDIRUBIN], the IC50 in test [1] was < 0.1 µM (not active).
In the case of `COc1ccc2c(c1OC)C(=O)OC2Nc1nc(-c2ccccc2)cs1` (stereo not drawn), in test [2], the CC50 is 9.86 µM (active). The EC50 in test [3] was 13.6 µM (active). The half-maximal activity concentration (AC50) in test [4] was 17.6 µM (active); in [5] it was 4.7 µM (active); in [6] it was 58.8 µM (active); in test [7], 17.7 µM (active). Besides, the IC50 in [8] was 39.9 µM (inactive); in test [9] it was 0.697 µM (active).
For the molecule `COc1cc(CNC(C)(C)CO)cc(Br)c1OCc1ccc(Cl)cc1`, the IC50 in [10] was 19.1 µM (active).
As for `O=C(NNC(=O)c1cc2ccccc2cc1O)c1cccs1`, the EC50 was > 150 µM (inactive) in test [11]; 9.37 µM (active) in test [12]; < 0.1 µM (active) in [13]; > 120 µM (not active) in [14]; > 38 µM (not active) in test [15]; 1.47 µM (active) in [16]. Also, the concentration for a half-maximal effect (EC50) in test [17] was 1.87 µM (active). In addition, the CC50 in test [18] was > 40 µM (active).

Values taken from ChEMBL document CHEMBL1201862, “PubChem BioAssay data set” (2004).
